Data: patent US20250345318A1, “COMPOUND AND USE THEREOF IN PREVENTING OR TREATING RADIATION DAMAGE” (SIMCERE PHARMACEUTICAL CO., LTD., priority 2022, published 2025)

Columns and labels:
[1] = tested on: IEC-6 cells; experiment: Mitochondrial membrane potential by JC-1 staining in irradiated IEC-6 cells (Example 13); assay type: cell-based; conditions: JAC4 24 h pretreatment + 12 Gy, 24 h after
Procedure: IEC-6 cells were pretreated for 24 h with JAC4 ([…]) or DMSO and subjected to radiation (12 Gy) treatment. After 24 h the ROS produced in the IEC-6 cells was determined with a DCFH probe, the apoptosis of IEC-6 cells was determined by Hoechst staining, the mitochondrial membrane potential in IEC-6 cells was determined by JC-1 staining, and the apoptotic IEC-6 cell ratio of cells different treatments and the red/green fluorescence ratio in IEC-6 cells after different treatments were calculated (**p<0.01 and ***p<0.001).

[2] = tested on: C57BL/6 male mice; experiment: Small intestine epithelial injury after abdominal X-ray irradiation 12 Gy (Example 10); assay type: in vivo; conditions: for small intestine crypt height / small intestine histopathological score: JAC4 100 mg/kg; for small intestine villus length: JAC4 100 mg/kg oral 7 days
Procedure: C57BL/6 male mice (24.7±0.9 g in body weight) aged 10 weeks were divided into 3 groups: a vehicle control group (n=6), a vehicle+radiation group (n=12), and a JAC4+radiation group (n=12). JAC4 (100 mg/kg) or an equal volume of vehicle (polyethylene glycol:ethanol:physiological saline=47.5:7.5:50, v/v/v) was orally administered to the mice once daily for 7 consecutive days. After that, the mice in the radiation groups were subjected to abdominal X-ray irradiation (12 Gy). The mice in the vehicle control group (n=6), the vehicle+radiation group (n=6), and the JAC4+radiation group (n=6) were sacrificed at 6 h, and blood samples and small intestine tissues were collected. The remaining mice in the vehicle+radiation group (n=6) and the JAC4+radiation group (n=6) were sacrificed after day 8, and blood samples and small intestine tissues were collected. In the process, abdominal irradiation was given while sparing the femoral region to minimize damage to the hematopoietic system. After the abdominal irradiation, HE staining was performed on the small intestines of mice in all groups, and the small intestine villus lengths, histopathological scores of the small intestine tissue sections, and the crypt heights were measured in all groups (* p<0.05, *** p<0.001).

[3] = tested on: C57BL/6 male mice; experiment: Therapeutic JAC4 administration, total body X-ray irradiation, small intestine villus length (Example 7); assay type: in vivo
Procedure: C57BL/6 male mice (24.8±1.6 g in body weight) aged 10 weeks were divided into 4 groups. The mice were subjected to total body X-ray irradiation (6 Gy) before JAC4 (100 mg/kg) or an equal volume of vehicle (polyethylene glycol:ethanol:physiological saline=47.5:7.5:50, v/v/v) was orally administered to the mice once daily for 7 consecutive days. The small intestine tissues were collected for HE staining and inspection, and the small intestine villus length was measured in all groups and statistically analyzed. The specific procedures are as follows: 3 mice were randomly selected from each group for statistical analysis of their small intestine tissue HE staining images, and for each mouse, 6 fields of view were randomly selected for inspection (*** p<0.001).

[4] = tested on: JWA^IEC-ko mice; experiment: X-ray-induced intestinal injury in intestinal epithelial JWA-knockout mice (Example 12); assay type: in vivo; conditions: JAC4 10 mg/kg daily, ABI 10 Gy
Source text: The Model Animal Research Institute of Nanjing University was commissioned to conduct the construction of JWA^flox/+ A129 mice and embryo cryopreservation, preservation, and thawing. These mice were bred with wild-type C57/BL6 mice for over six generations to give mice of C57/BL6 background. Villin-cre mice, provided by Shanghai Model Organisms Center, Inc., were C57/BL6 mice. The JWA-knockout mice (JWA^ko) and their littermate control (JWA^wt) counterparts were derived from an in-house conservation breed. The JWA^flox/flox mice were bred from the JWA^flox/+ mice. The intestinal epithelial JWA-knockout mice (JWA^IEC-ko) and control group (JWA^IEC-wt) were obtained through breeding JWA^flex/flex mice with Villin-cre mice.
The off-target model was established using JWA^IEC-ko mice and their JWA^IEC-wt littermates (8 weeks old), and the mice receiving radiation were divided into 4 groups: (1) a JWA^IEC-wt mice+vehicle group (n=5); (2) a JWA^IEC-wt mice+JAC4 group (n=5); (3) a JWA^IEC-ko mice+vehicle group (n=6); (4) a JWA^IEC-ko mice+JAC4 group (n=5). All mice were subjected to abdominal irradiation at 10 Gy. 7 days before radiation, 10 mg/kg JAC4 or an equal volume of vehicle (polyethylene glycol:ethanol:physiological saline=40:7.5:52.5, v/v/v) was administered intragastrically daily until the end of modeling. The blank control group (wild type, n=6) was not irradiated, and the modeling was terminated on day 4 after radiation.
To verify whether the protective effect of JAC4 on X-ray radiation-induced intestinal damage in mice is dependent on the expression of JWA, the present disclosure verified the targeting effect of JAC4 using JWA^IEC-ko mice.
JWA^IEC-ko and JWA^IEC-wt mice were treated daily with JAC4 (10 mg/kg) or an equal volume of vehicle (polyethylene glycol:ethanol:physiological saline=47.5:7.5:50, v/v/v), respectively, from 7 days before the ABI (10 Gy) exposure to 4 days after the exposure. […] Meanwhile, the contents of TNF-α and IL-1β were consistent with the results of FD4. […] As shown in panels E and F, ABI increased the activity of GSH-Px (530.8±207.8 vs. 406.2±197.9 U/mL) and decreased the activity of CAT (89.4 f 0.4 vs. 68.7±14.2 U/mL). JAC4 further enhanced the antioxidant enzymes in JWA^IEC-wt mice (815.1±203.9 vs. 530.8±207.8 U/mL and 85.9±8.2 vs. 68.7±14.2 U/mL; P<0.05, P<0.05). […] Intestinal tissues were isolated, and the expression of apoptotic molecules was detected by Western blot (FIG. 16J). In wild-type mice, compared with the control group, X-rays increased the expression of Bax and cleaved PARP1 in the small intestine.

[5] = tested on: NF-κB; experiment: NF-κB nuclear translocation by Western blot, BEAS-2B (Example 22); assay type: cell-based, human; conditions: JAC4 in combination with X-ray
Source text: The production of ROS may lead to the activation of NF-κB, promote the translocation of NF-κB to the cell nucleus, and mediate various inflammatory responses. The nuclear and cytoplasmic proteins in BEAS-2B cells in all groups were separated.

[6] = 6 h after abdominal X-ray 12 Gy
[7] = day 8 after abdominal X-ray 12 Gy

c1ccc(CSc2nnc(C3COc4ccccc4O3)o2)nc1 (stereo not shown) [JAC4]
red/green fluorescence ratio (JC-1, mitochondrial membrane potential) [1]: 0.49±0.05 | small intestine crypt height [2, 6]: 49.80±4.06 μm | small intestine histopathological score [2, 6]: 3.17±0.41 | small intestine villus length [2, 6]: 308.25±25.65 μm | small intestine crypt height [2, 7]: 53.76±3.33 μm | small intestine histopathological score [2, 7]: 2.83±0.41 | small intestine villus length [2, 7]: 300.38±33.27 μm | small intestine villus length ([3]; TBI 6 Gy, then JAC4 100 mg/kg oral once daily 7 days): 263.11±37.99 μm | small intestine villus length ([3]; non-radiation, JAC4 100 mg/kg oral 7 days): 306.71±24.22 μm | enhancement of antioxidant enzymes (GSH-Px, CAT) [4]: not confirmed | plasma FD4 content [4]: 9192.8 ± 5573.2 ng/mL | plasma IL-1β [4]: 65.6 ± 3.3 ng/mL | plasma TNF-α [4]: 769.8 ± 112.3 ng/mL | crypt height ([4]; day 4): 53.0±3.0 μm | intestinal villus length ([4]; day 4): 150.6±8.4 μm | X-ray-induced increase of NF-κB nuclear expression [5]: inhibited
